Experiment [1] relates to granulocyte infiltration (MPO activity). Description: Granulocyte/leucocyte infiltration (MPO activity), croton oil ear. It counts as in vivo, mice. The settings on record: for leukocyte infiltration: measured as myeloperoxidase activity; for Effect on granulocyte infiltration (MPO activity): apigenin glycoside 0.37, luteolin glycoside 0.27, indomethacin 1.26, hydrocortisone 0.41 μMol, one unit = 1 nMol/min. of tetraguaiacol at 25° C. Here is the method:
Effect on granulocyte infiltration (MPO activity).
One unit = 1 nMol/min. of tetraguaiacol formed at 25° C. p < 0.05
The inflammation appears to naturally suppress after 30 hours.

Experiment [2] has as its system croton-oil induced ear oedema. Description: Croton oil ear test (topical; oedema). The settings on record: for Activity Ratio on Molar basis: Indomethacin = 1; for Effect on Oedema Development: apigenin glycoside 0.037, luteolin glycoside 0.27, indomethacin 1.26, hydrocortisone 0.41 μMol, means ± s.e. It counts as in vivo, mice. An excerpt: The test used was described in published literature, where apigenin 7-glucoside was used as a reference sample.
Indomethacin and hydrocortisone were used as the reference drugs.

The test system of experiment [3] is Carrageenan-induced Pedal Oedema. Description: Carrageenan-induced pedal oedema in rats, oral extract / i.p. indomethacin. The settings on record: for Oedema + SEM (%): N=6. It counts as in vivo. The source says:
Carrageenan-induced oedema is a biphasic event, the early hypermia being due to the release of histamine and serotonin and the delayed oedema due to the release of bradykinin and prostaglandins.
Modification of Carrageenan-induced Pedal Oedema in Rats following oral
Administration of the extract and Intraperitoneal treatment with […]
(In general: Carrageenan injected into the paw causes an acute inflammation.)

The subject of experiment [4] is Carrageenan-induced Mice Paw Oedema. The experiment can be described thus: Carrageenan-induced paw oedema, topical application. It counts as in vivo. How it is done:
Carrageenan-induced Pedal Oedema Test:
Modification of Carrageenan-induced Mice Paw Oedema following Topical
Application of the Standardized Extract and Indomethacin.
The duration of action of topical preparation was determined by studying the effects of different concentrations of the drug on oedema over a period of 8 hr. As evident from the Table 3, the peak inhibition was observed after 3-4 hours of carrageenan injection beginning at 2 hr for the extract at lower concentrations (0.5-2.0%) and 1 hr. at 4% concentration.

The subject of a further experiment is cotton pellet granuloma. Particulars: in vivo; cited from earlier work.
The subject of experiment [5] is mast cell histamine secretion. Particulars: cited from earlier work.
Another experiment has as its system neutrophil functions. Particulars: cited from earlier work.

Data on seven compounds can be found in US5858371A, “Pharmaceutical composition for the control and treatment of anorectal and colonic diseases” (Panacea Biotech Limited, priority 1997, dated 1999).

Take `O=c1cc(-c2ccc(O)cc2)oc2cc(O)cc(O)c12` [Apigenin, apigenin]: in experiment [1], the “leukocyte infiltration” value is reported as “decrease leukocyte infiltration”.
Take `O=c1cc(-c2ccc(O)cc2)oc2cc(O[C@@H]3O[C@H](CO)[C@@H](O)[C@H](O)[C@H]3O)cc(O)c12` [Apigenin-7-glucoside]: the “Activity Ratio on Molar basis” value in experiment [2] worked out at 0.32.
`C[C@]12CCC(=O)C=C1CC[C@@H]1[C@@H]2[C@@H](O)C[C@@]2(C)[C@H]1CC[C@]2(O)C(=O)CO` [Hydrocortisone]: the figures for the “Effect on Oedema Development” value in experiment [2] (6 hours after treatment), in experiment [2] (18 hours after treatment) and in experiment [2] (30 hours after treatment) were 0.5 ± 0.2 mg, 0.7 ± 0.1 mg and 0.7 ± 0.1 mg, respectively. Also, the “duration of antiinflammatory activity” value in experiment [2] (18 hours after treatment) is listed as “maintain their effect to a certain extent”. The “Activity Ratio on Molar basis” value in experiment [2] is on record as 14.00. The “Effect on granulocyte infiltration (MPO activity)” value amounted to 0.0 ± 0.2 unit in experiment [1] (6 hours after treatment), 6.9 ± 2.1 unit in experiment [1] (18 hours after treatment) and 8.2 ± 2.4 unit in experiment [1] (30 hours after treatment).
In general, inhibition refers to the relative decrease from the control value, in per cent. A higher inhibition goes with strong suppression. Regarding `COc1ccc2c(c1)c(CC(=O)O)c(C)n2C(=O)c1ccc(Cl)cc1` [Indomethacin], the “Oedema + SEM (%)” value in experiment [3] (indomethacin 0.5 mg/Kg i.p., +30 min) came out at 13.6 ± 4.0%; in experiment [3] (indomethacin 0.5 mg/Kg i.p., +60 min) it was 18.9 ± 4.0%; in experiment [3] (indomethacin 0.5 mg/Kg i.p., +120 min), 28.8 ± 4.2%; in experiment [3] (indomethacin 1.0 mg/Kg i.p., +30 min) it was 9.3 ± 2.3%; in experiment [3] (indomethacin 1.0 mg/Kg i.p., +60 min) it was 12.3 ± 2.2%; in experiment [3] (indomethacin 1.0 mg/Kg i.p., +120 min) it was 16.4 ± 1.6%. The “Oedema + SEM (%)” value in experiment [3] (indomethacin 2.0 mg/Kg i.p., +30 min) was determined as 8.2 ± 1.5%; in experiment [3] (indomethacin 2.0 mg/Kg i.p., +60 min), 12.8 ± 1.8%. In experiment [3] (indomethacin 1 mg/kg i.p.), this compound showed an inhibition of oedema of 74%. In addition, the “inhibition of carrageenan-induced paw oedema” value in experiment [4] (Indomethacin line printed at dose 1.00, +60 m, N=6) is 30.3%; in experiment [4] (Indomethacin line printed at dose 1.00, +120 m, N=6) it was 28.0%; in experiment [4] (Indomethacin line printed at dose 1.00, +180 m, N=6) it was 46.8%; in experiment [4] (Indomethacin line printed at dose 1.00, +240 m, N=6), 21.2%; in experiment [4] (Indomethacin line printed at dose 1.00, +360 m, N=6), 11.5%; in experiment [4] (Indomethacin line printed at dose 1.00, +480 m, N=6), 13.9%. Besides, the “inhibition of carrageenan-induced paw oedema” value amounted to 18.2% in experiment [4] (Indomethacin line printed at dose 2.00, +60 m, N=6); 24.0% in experiment [4] (Indomethacin line printed at dose 2.00, +120 m, N=6); 29.0% in experiment [4] (Indomethacin line printed at dose 2.00, +180 m, N=6); 21.2% in experiment [4] (Indomethacin line printed at dose 2.00, +240 m, N=6); 9.6% in experiment [4] (Indomethacin line printed at dose 2.00, +360 m, N=6); 4.6% in experiment [4] (Indomethacin line printed at dose 2.00, +480 m, N=6). The “inhibition of carrageenan-induced paw oedema” value in experiment [4] (last line, no dose given, +60 m) worked out at 24.2%; in experiment [4] (last line, no dose given, +120 m), 26.0%; in experiment [4] (last line, no dose given, +180 m), 41.9%; in experiment [4] (last line, no dose given, +240 m) it was 36.4%; in experiment [4] (last line, no dose given, +360 m), 11.5%; in experiment [4] (last line, no dose given, +480 m), 10.6%. In addition, in experiment [4] (indomethacin 2 percent concentration), the inhibition is 41.9%. In addition, the results for the “Effect on Oedema Development” value in experiment [2] (6 hours after treatment), in experiment [2] (18 hours after treatment) and in experiment [2] (30 hours after treatment) were 0.0 ± 0.1 mg, 3.1 ± 0.4 mg and 0.5 ± 0.1 mg, respectively. Further, the “duration of antiinflammatory activity” value in experiment [2] (18 hours after treatment) was “lose their antiinflammatory activity 18 hours after treatment”. The “Effect on granulocyte infiltration (MPO activity)” value in experiment [1] (6 hours after treatment) worked out at 0.0 ± 0.1 unit; in experiment [1] (18 hours after treatment), 10.0 ± 1.6 unit; in experiment [1] (30 hours after treatment), 6.8 ± 3.4 unit.
Regarding `O=c1c(O)c(-c2ccc(O)c(O)c2)oc2cc(O)cc(O)c12` [Quercetin, quercetin], the “Activity Ratio on Molar basis” value in experiment [2] turned out to be 0.65. The “exudative and proliferative phases of cotton pellet granuloma” value in the experiment on cotton pellet granuloma was “control significantly the exudative and the proliferative phases of the cotton pellet granuloma”. Besides, the “mast cell histamine secretion” value in experiment [5] is on record as “inhibits mast cell histamine secretion”. Also, the “neutrophil functions: release of lysosomal enzymes, oxygen consumption, generation of free radicals and chemotaxis” value with neutrophil functions is “inhibits mast cell histamine secretion (Benett, J. P., Gomperts, B. D. and Wollenweber, E., Arzneim. Forsch., 31, 433, 1981), neutrophil functions such as release of lysosomal enzymes, oxygen consumption, generation of free radicals and chemotaxis”.
Take `C[C@@H]1O[C@@H](OC[C@H]2O[C@@H](Oc3c(-c4ccc(O)c(O)c4)oc4cc(O)cc(O)c4c3=O)[C@H](O)[C@@H](O)[C@@H]2O)[C@H](O)[C@H](O)[C@H]1O` [Rutin]: the “Activity Ratio on Molar basis” value in experiment [2] was found to be 0.28.
`O=c1cc(-c2ccc(O)c(O)c2)oc2cc(O)cc(O)c12` [luteolin]: the “leukocyte infiltration” value in experiment [1] is “decrease leukocyte infiltration and luteolin maintained its effect even after 18 hours of treatment”.
